Values after ≈ are worked out from the molar mass of the structure shown. Like-named read-outs stand apart in the source and are kept apart here.
Assays:
Assay type in all cases: cell-based
dengue virus (DENV) = test: microbe, parasite or virus in culture; conditions: Dengue virus, Vero, 120 h, read-out: Percent viral inhibition DENY
[1] = system: Yellow Fever (YFV 17D; Huh7); test: microbe, parasite or virus in culture
[2] = system: Japanese encephalitis virus (SA-14; Vero 76); test: In vitro viral inhibition, Japanese encephalitis virus
Marburg virus (MARV) = test: organism not typed; conditions: Vero, 72 h, read-out: Percent viral inhibition MARV
[3] = system: Powassan virus (LB; BHK-21); test: microbe, parasite or virus in culture
[4] = system: Eastern equine encephalitis (FL39-939; Vero 76); test: cells
[5] = system: Dengue Virus 2 (New Guinea C; Huh7); test: In vitro viral inhibition, Dengue Virus 2
[6] = system: Usutu virus (TC-508; Vero 76); test: In vitro viral inhibition, Usutu virus; conditions: strain TC-508, Vero 76 cells
Method: (§1) In vitro studies of the antiviral activity were also carried out for several viruses using Example 369.

[7] = system: Chikungunya virus (CHIKV); test: microbe, parasite or virus in culture; conditions: Chikungunya virus, Vero, 48 h, read-out: Percent viral inhibition CHKV
[8] = system: Chikungunya (S27; Vero 76); test: In vitro viral inhibition, Chikungunya; conditions: Chikungunya virus
[9] = system: Respiratory syncytial virus (A2; RD); test: In vitro viral inhibition, Respiratory syncytial virus; conditions: human respiratory syncytial virus
Method: as §1

[10] = system: Venezuelan equine encephalitis (TC-83; Vero 76); test: cells
[11] = system: Western equine encephalitis (California; Vero 76); test: cells
[12] = system: Mayaro virus (BE AR 505411; Vero 76); test: In vitro viral inhibition, Mayaro virus; conditions: strain BE AR 505411, Vero 76 cells
Method: as §1

Measles (CC; Vero 76) = test: In vitro viral inhibition, Measles; conditions: Measles morbillivirus, strain CC, Vero 76 cells
Method: as §1

[13] = Huh-7, read-out: EC50 (ug/mL) (Neutral Red (NR) Assay)
[14] = Huh-7, read-out: EC50 (ug/mL) (VIS Drug Assay)
[15] = Vero 76, read-out: EC50 (ug/mL) (Neutral Red (NR) Assay)
[16] = Vero 76, read-out: EC50 (ug/mL) (VIS Drug Assay)
[17] = Neutral Red assay, read-out: EC50 (ug/mL) (Neutral Red (NR) Assay)
[18] = VIS assay, read-out: EC50 (ug/mL) (VIS Drug Assay)

`CC(=O)NCC1CCN(Cc2cc(Oc3cnc(N4CCN(CCC(C)C(=O)O)CC4)nc3)nc(-c3cc(Cl)cc(Cl)c3)c2)CC1` (stereo not drawn) [Example 369, 4-(4-(5-((4-((4-(acetamidomethyl)piperidin-1-yl)methyl)-6-(3,5-dichlorophenyl)pyridin-2-yl)oxy)pyrimidin-2-yl)piperazin-1-yl)-2-methylbutanoic acid] gave an inhibition at 1 µM (dengue virus (DENV)) of 33.3%, an EC50 [1, 13] of 0.18 µg/mL (≈ 0.268 µM) and an EC50 [1, 14] of 0.18 µg/mL (≈ 0.268 µM). For the same molecule, the EC50 [2, 15] was 3 µg/mL (≈ 4.47 µM), the EC50 [2, 16] was 0.32 µg/mL (≈ 0.477 µM) and the inhibition at 1 µM (Marburg virus (MARV)) was 47.1%. For the same molecule, the EC50 ([3]; BHK-21, read-out: EC50 (ug/mL) (Neutral Red (NR) Assay)) was < 0.1 µg/mL, the EC50 ([3]; BHK-21, read-out: EC50 (ug/mL) (VIS Drug Assay)) was < 0.1 µg/mL and the EC50 [4, 15] was < 0.1 µg/mL. For the same molecule, the EC50 [4, 16] was < 0.1 µg/mL, the EC50 [5, 13] was < 0.1 µg/mL and the EC50 [5, 14] was < 0.1 µg/mL. It also gave an EC50 [6, 17] of 5.8 µg/mL (≈ 8.65 µM), an EC50 [6, 18] of 2.7 µg/mL (≈ 4.03 µM) and an inhibition at 1 µM [7] of 32.9%. The EC50 [8, 15] was 0.18 µg/mL (≈ 0.268 µM), the EC50 [8, 16] was 0.12 µg/mL (≈ 0.179 µM) and the EC50 ([9]; read-out: EC50 (ug/mL) (Neutral Red (NR) Assay)) was 0.3 µg/mL (≈ 0.447 µM). It also gave an EC50 ([9]; read-out: EC50 (ug/mL) (VIS Drug Assay)) of 28 µg/mL (≈ 41.8 µM), an EC50 [10, 15] of 0.77 µg/mL (≈ 1.15 µM) and an EC50 [10, 16] of 0.55 µg/mL (≈ 0.82 µM). For the same molecule, the EC50 [11, 15] was < 0.1 µg/mL, the EC50 [11, 16] was < 0.1 µg/mL and the EC50 [12, 17] was 0.28 µg/mL (≈ 0.418 µM). For the same molecule, the EC50 [12, 18] was 0.32 µg/mL (≈ 0.477 µM), the EC50 (Measles (CC; Vero 76); [17]) was < 0.1 µg/mL and the EC50 (Measles (CC; Vero 76); [18]) was < 0.1 µg/mL.
In the case of `CC(=O)NCC1CCN(Cc2cc(Oc3ccc(N4CCN(C(=O)CCC(=O)O)CC4)nc3)nc(-c3cc(Cl)cc(Cl)c3)c2)CC1` [Example 33, 4-(4-(5-((4-((4-(acetamidomethyl)piperidin-1-yl)methyl)-6-(3,5-dichlorophenyl)pyridin-2-yl)oxy)pyridin-2-yl)piperazin-1-yl)-4-oxobutanoic acid], the inhibition at 1 µM (dengue virus (DENV)) is reported as 49.4%, the inhibition at 1 µM (Marburg virus (MARV)) is reported as 67.3% and the inhibition at 1 µM [7] is reported as 36.5%.
In the case of `CC(=O)NCC1CCN(Cc2cc(Oc3ccc(N)cn3)cc(-c3cc(Cl)cc(Cl)c3)c2)CC1` [Example 45, N-((1-((5-((5-aminopyridin-2-yl)oxy)-3′,5′-dichloro-[1,1′-biphenyl]-3-yl)methyl)piperidin-4-yl)methyl)acetamide], the inhibition at 1 µM (dengue virus (DENV)) is reported as 0%, the inhibition at 1 µM (Marburg virus (MARV)) is reported as 18.4% and the inhibition at 1 µM [7] is reported as 0%.
For `CNC(=O)CCN1CCN(c2ncc(Oc3cc(CN4CCC(CNC(C)=O)CC4)cc(-c4cc(Cl)cc(Cl)c4)n3)cn2)CC1` [Example 94, 3-(4-(5-((4-((4-(acetamidomethyl)piperidin-1-yl)methyl)-6-(3,5-dichlorophenyl)pyridin-2-yl)oxy)pyrimidin-2-yl)piperazin-1-yl)-N-methylpropanamide], the inhibition at 1 µM (dengue virus (DENV)) was 41.5%, the inhibition at 1 µM (Marburg virus (MARV)) was 66% and the inhibition at 1 µM [7] was 31.3%.
With `CN1CCN(c2ccc(Oc3cc(CN4CCC5(CC4)CNC(=O)OC5)cc(-c4cc(Cl)cc(Cl)c4)n3)cn2)CC1` [Example 141, 9-((2-(3,5-dichlorophenyl)-6-((6-(4-methylpiperazin-1-yl)pyridin-3-yl)oxy)pyridin-4-yl)methyl)-2-oxa-4,9-diazaspiro[5.5]undecan-3-one] the inhibition at 1 µM (dengue virus (DENV)) was 27.7%, the inhibition at 1 µM (Marburg virus (MARV)) was 66.6% and the inhibition at 1 µM [7] was 20.9%.
Molecule `CN1CCN(c2ccc(Oc3cc(CN4CC[C@@H]5[C@H](CC4)[C@H]5C(=O)O)cc(-c4cc(Cl)cc(Cl)c4)n3)nn2)CC1` [Example 361, (1R,7S,8r)-4-((2-(3,5-dichlorophenyl)-6-((6-(4-methylpiperazin-1-yl)pyridazin-3-yl)oxy)pyridin-4-yl)methyl)-4-azabicyclo[5.1.0]octane-8-carboxylic acid] has an inhibition at 1 µM (dengue virus (DENV)) of 12.1%, an inhibition at 1 µM (Marburg virus (MARV)) of 42% and an inhibition at 1 µM [7] of 26.6%.
For `O=S(=O)(O)CC1CCN(Cc2cc(Oc3ccc(N4CCNCC4)nc3)nc(-c3cc(Cl)cc(Cl)c3)c2)CC1` [Example 8, (1-((2-(3,5-dichlorophenyl)-6-((6-(piperazin-1-yl)pyridin-3-yl)oxy)pyridin-4-yl)methyl)piperidin-4-yl)methanesulfonic acid], the inhibition at 1 µM (dengue virus (DENV)) was 14.7%, the inhibition at 1 µM (Marburg virus (MARV)) was 10.9% and the inhibition at 1 µM [7] was 1.77%.
`CN1CCN(c2ncc(Oc3cc(CN4CCC(OC(C)(C)C(=O)O)CC4)cc(-c4cc(Cl)cc(Cl)c4)n3)cn2)CC1` [Example 225, 2-((1-((2-(3,5-dichlorophenyl)-6-((2-(4-methylpiperazin-1-yl)pyrimidin-5-yl)oxy)pyridin-4-yl)methyl)piperidin-4-yl)oxy)-2-methylpropanoic acid] gave an inhibition at 1 µM (dengue virus (DENV)) of 33.3%, an inhibition at 1 µM (Marburg virus (MARV)) of 52.3% and an inhibition at 1 µM [7] of 24.2%.
Molecule `CC(=O)NCC1CCN(Cc2cc(Oc3ccc(N4CCN(CCC(=O)O)[C@@H](C)C4)nc3)nc(-c3cc(Cl)cc(Cl)c3)c2)CC1` [Example 186] has an inhibition at 1 µM (dengue virus (DENV)) of 53.9%, an inhibition at 1 µM (Marburg virus (MARV)) of 30.6% and an inhibition at 1 µM [7] of 19.9%.
